Test results from patent US12582132B2, “Germination/sprouting and fruit ripening regulators” (The United States of America, as represented by the …, priority 2021, dated 2026).
Entries after “also recorded” stand apart in the source; their conditions may differ.

Tests used:
Assay type in all cases: in vivo
[1] = test system: strawberry fruit; assay: CAD analogs: ability to hasten strawberry fruit ripening; conditions: 50 μM in 0.1% TRITON-X 100, applied at the same timing as CAD; compared with CAD
Protocol: Chemicals with similarity to CAD were tested for their ability to hasten fruit ripening.
To the inventors' knowledge, no chemical closely related to CAD is currently commercially available. A few analogs with 88-90% similarity to CAD were found in the ChemBridge database used in Example 1.
This compound has 90% similarity to CAD.

[2] = test system: Strawberry fruit (Fragaria x ananassa CV. Albion); assay: Treatment of strawberry fruit by dipping: fruit ripening; conditions: for strawberry fruit ripening compared to mock-treated strawberries: 10 μM CAD or 1 mM ABA in 0.1% TRITON X-100, dipped 20 seconds eight days after pollination; for strawberry appearance (colour), FIG. 2A: 7 DAT; for strawberry appearance (colour), FIG. 2A / strawberry appearance (colour), FIG. 2B / strawberry appearance (colour), FIG. 2C / strawberry appearance (colour), FIG. 2D / strawberry appearance (colour), FIG. 2E / strawberry appearance (colour), FIG. 2F: 8 day old fruit, 10 μM CAD or 1 mM ABA in 0.1% TRITON-X100; for strawberry appearance (colour), FIG. 2B: 8 DAT; for strawberry appearance (colour), FIG. 2C: 9 DAT; for strawberry appearance (colour), FIG. 2D: 10 DAT; for strawberry appearance (colour), FIG. 2E: 11 DAT; for strawberry appearance (colour), FIG. 2F: 12 DAT
Protocol: Strawberry plants (Fragaria x ananassa CV. Albion) were grown in a greenhouse at 28° C. and 14-hour light/10-hour dark conditions. […] Fruits were allowed to continue growing on the plants. FIG. 1 depicts images of strawberry fruit development under standard conditions.
FIG. 2A to FIG. 2F depict images of strawberries treated with either 10 μM CAD in 0.1% TRITON X-100 surfactant; 1 mM ABA in 0.1% TRITON X-100 surfactant; or buffer (0.1% TRITON X-100 surfactant) without chemical (mock-treated). […] The CAD dosage was lower than that of ABA (10 μM vs. 1 mM), and CAD stimulated fruit ripening faster than did ABA. […] In contrast, ABA-treated fruit started to turn red 9 DAT, and reached full red 11 DAT.

[3] = test system: Cherry tomato fruits at mature green stage; assay: Treatment of cherry tomatoes by injection: fruit ripening; conditions: for cherry tomato appearance (colour), FIG. 3B / FIG. 3D: 6 DAT, injected with 10 μM CAD or 200 μM ABA in 0.1% TRITON-X100; for cherry tomato ripening stage: six days after treatment, injected with 50 μM CAD or 200 μM ABA in 0.1% TRITON X-100
Protocol: Cherry tomato fruits at mature green stage were purchased from Butler's Orchard (Germantown, Maryland, USA). Each fruit was injected with either 50 μM CAD in 0.1% TRITON X-100 surfactant; 200 μM ABA in 0.1% TRITON X-100 surfactant; or buffer alone (0.1% TRITON X-100 surfactant). […] FIG. 3A and FIG. 3B show images of cherry tomatoes injected with 10 μM CAD. FIG. 3C and FIG. 3D show images of cherry tomatoes injected with 200 μM ABA. FIG. 3E and FIG. 3F show images of cherry tomatoes injected with buffer alone. FIG. 3G and FIG. 3H show images of untreated tomatoes. FIG. 3A; FIG. 3C; FIG. 3E; and FIG. 3G show images taken the day of treatment. FIG. 3B; FIG. 3D; […]; and FIG. 3H show images taken 6 DAT.

[4] = test system: strawberries on the plant; assay: Effect of CAD injection on strawberry fruit ripening; conditions: for strawberry appearance (colour), FIG. 4A: 8 DAT; for strawberry appearance (colour), FIG. 4A / strawberry appearance (colour), FIG. 4B / strawberry appearance (colour), FIG. 4C / strawberry appearance (colour), FIG. 4D / strawberry appearance (colour), FIG. 4E / strawberry appearance (colour), FIG. 4F: 7 day old fruit, 10 μM CAD or 200 μM ABA in 0.1% TRITON-X100, injected; for strawberry appearance (colour), FIG. 4B: 9 DAT; for strawberry appearance (colour), FIG. 4C: 10 DAT; for strawberry appearance (colour), FIG. 4D: 11 DAT; for strawberry appearance (colour), FIG. 4E: 12 DAT; for strawberry appearance (colour), FIG. 4F: 13 DAT
Protocol: While still on the plant, strawberries were injected with either 10 μM CAD in 0.1% TRITON-X 100 surfactant; 200 μM ABA in 0.1% TRITON-X 100 surfactant; or 0.1% TRITON-X 100 surfactant. The strawberries were allowed to remain on the plant, and removed and photographed at 8 DAT, 9 DAT, 10 DAT, 11 DAT, 12 DAT, and 13 DAT. FIG. 4A to FIG. 4F depict images of strawberries treated with either 10 μM CAD in 0.1% TRITON-X 100 surfactant; 200 μM ABA in 0.1% TRITON-X 100 surfactant; or 0.1% TRITON-X 100 surfactant alone (mock); or no treatment.

[5] = test system: Strawberry seeds (Fragaria x ananassa CV. Albion); assay: Chemical library screening for delaying strawberry seed germination; conditions: about 5 μM chemical in 0.1% TRITON X-100; strawberry seeds in 96 well plates, 25° C., vs non-treated or mock-treated seeds
Protocol: A chemical library containing 10,000 small compounds (˜300 Dalton) was purchased from ChemBridge Co (San Diego, California, USA). Strawberry seeds (Fragaria x ananassa CV. Albion) were purchased from Johnny's Seeds (Fairfield, Maine, USA). Five to six seeds were sterilized with 70% ethanol and added to each well of 96 well ELISA plates containing about 5 μM chemical 0.1% TRITON X-100 surfactant (polyethylene glycol tert-octylphenyl ether). One mM abscisic acid (ABA), a hormone that inhibits seed germination, and gibberellic acid (GA3), a hormone that promotes seed germination, were used as controls. Each experiment was conducted in triplicate. Plates were kept in a growth chamber at 25° C. under dark, and a 14 hour light/10 hour dark cycle was added after seed germination was observed.

[6] = 10 μM CAD or 1 mM ABA in 0.1% TRITON X-100, dipped eight days after pollination, days after treatment

| Compound | effect on strawberry fruit ripening [1] | strawberry fruit ripening compared to mock-treated strawberries [2] | fruit reached full red [2, 6] | strawberry appearance (colour), FIG. 2A [2] | strawberry appearance (colour), FIG. 2B [2] | strawberry appearance (colour), FIG. 2C [2] | strawberry appearance (colour), FIG. 2D [2] | strawberry appearance (colour), FIG. 2E [2] | strawberry appearance (colour), FIG. 2F [2] | cherry tomato appearance (colour), FIG. 3B / FIG. 3D [3] | cherry tomato ripening stage [3] | strawberry appearance (colour), FIG. 4A [4] | strawberry appearance (colour), FIG. 4B [4] | strawberry appearance (colour), FIG. 4C [4] | strawberry appearance (colour), FIG. 4D [4] | strawberry appearance (colour), FIG. 4E [4] | strawberry appearance (colour), FIG. 4F [4] | other results |
| --- | --- | --- | --- | --- | --- | --- | --- | --- | --- | --- | --- | --- | --- | --- | --- | --- | --- | --- |
| CCn1cc(Br)c(C(=O)Nc2ccccc2C(C)(C)C)n1 [4-bromo-N-(2-tert-butylphenyl)-1-ethyl-1H-pyrazole-3-carboxamide] | a lower effect on fruit ripening than CAD |  |  |  |  |  |  |  |  |  |  |  |  |  |  |  |  |  |
| CCc1cccc(C)c1NC(=O)c1ccn(CC)n1 [1-ethyl-N-(2-ethyl-6-methylphenyl)-1H pyrazole-3-carboxamide] | no obvious effect on fruit ripening |  |  |  |  |  |  |  |  |  |  |  |  |  |  |  |  |  |
| CCn1ccc(C(=O)Nc2ccc(Br)cc2)n1 [N-(4-bromophenyl)-1-ethyl-1H-pyrazole-3-carboxamide] | has an effect on fruit ripening; also recorded: promoted strawberry fruit ripening, although not as effectively as CAD |  |  |  |  |  |  |  |  |  |  |  |  |  |  |  |  |  |
| CC1=CC(=O)CC(C)(C)[C@@]1(O)/C=C/C(C)=C\C(=O)O [ABA, abscisic acid, reference compound] |  | stimulated strawberry fruit ripening | 11 DAT | white with a greenish tint | white | with more pink | reddish | mostly red | red allover | red | fully ripen (red stage) | white or greenish white | with some pink | pink/red | reddish | red | red with some white at the top | fruit began/started to turn red (start of ripening) [2, 6]: 9 DAT |
| CCc1cc(Br)ccc1NC(=O)c1ccn(CC)n1 [CAD, N-(4-bromo-2-ethylphenyl)-1-ethyl-1H-pyrazole-3-carboxamide] |  | stimulated strawberry fruit ripening | 9 DAT | white have a pink tint | with pink spots | mostly red | red | red allover | red allover | dark red | fully ripen (red stage) | with a pink tint | mostly light red; also recorded: showed some color | red and ripe | red | bright red | red allover | delaying seed germination [5]: can delay seed germination; cherry tomato ripening compared to mock-treated or untreated cherry tomatoes ([3]; CAD injected in 0.1% TRITON X-100): hastening of cherry tomato ripening; also recorded: promoted fruit ripening of climacteric tomatoes; ripened before strawberries injected with 200 μM ABA ([4]; strawberries injected with 10 μM CAD in TRITON-X100 14 days after pollination): at least two |
